Assay results taken from ChEMBL document CHEMBL4004849, “Tetrazolylmethyl quinolines: Design, docking studies, synthesis, anticancer and antifungal analyses” (2017).
The source made the active and inactive calls.

Key:
Type in all cases: functional
NCI-H460 = experiment: Growth inhibition of human NCI-H460 cells at 10^-5 M incubated for 48 hrs by sulforhodamine B assay relative to control
MDA-MB-435 = experiment: Growth inhibition of human MDA-MB-435 cells at 10^-5 M incubated for 48 hrs by sulforhodamine B assay relative to control
Malme-3M = experiment: Growth inhibition of human MALME-3M cells at 10^-5 M incubated for 48 hrs by sulforhodamine B assay relative to control
SK-OV-3 = experiment: Growth inhibition of human SKOV3 cells at 10^-5 M incubated for 48 hrs by sulforhodamine B assay relative to control
A549 = experiment: Growth inhibition of human A549/ATCC cells at 10^-5 M incubated for 48 hrs by sulforhodamine B assay relative to control
T47D = experiment: Growth inhibition of human T47D cells at 10^-5 M incubated for 48 hrs by sulforhodamine B assay relative to control
KM12 = experiment: Growth inhibition of human KM12 cells at 10^-5 M incubated for 48 hrs by sulforhodamine B assay relative to control
HCC 2998 = experiment: Growth inhibition of human HCC2998 cells at 10^-5 M incubated for 48 hrs by sulforhodamine B assay relative to control
LOX IMVI = experiment: Growth inhibition of human LOXIMVI cells at 10^-5 M incubated for 48 hrs by sulforhodamine B assay relative to control
SN12C = experiment: Growth inhibition of human SN12C cells at 10^-5 M incubated for 48 hrs by sulforhodamine B assay relative to control
MOLT-4 = experiment: Growth inhibition of human MOLT4 cells at 10^-5 M incubated for 48 hrs by sulforhodamine B assay relative to control
SR = experiment: Growth inhibition of human SR cells at 10^-5 M incubated for 48 hrs by sulforhodamine B assay relative to control
SF-295 = experiment: Growth inhibition of human SF295 cells at 10^-5 M incubated for 48 hrs by sulforhodamine B assay relative to control
Aspergillus fumigatus = experiment: Antifungal activity against Aspergillus fumigatus after 24 hrs by serial dilution method
ACHN = experiment: Growth inhibition of human ACHN cells at 10^-5 M incubated for 48 hrs by sulforhodamine B assay relative to control
HCT-15 = experiment: Growth inhibition of human HCT15 cells at 10^-5 M incubated for 48 hrs by sulforhodamine B assay relative to control
SK-MEL-2 = experiment: Growth inhibition of human SK-MEL-2 cells at 10^-5 M incubated for 48 hrs by sulforhodamine B assay relative to control
MDA-MB-231 = experiment: Growth inhibition of human MDA-MB-231/ATCC cells at 10^-5 M incubated for 48 hrs by sulforhodamine B assay relative to control
TK-10 = experiment: Growth inhibition of human TK10 cells at 10^-5 M incubated for 48 hrs by sulforhodamine B assay relative to control
Candida albicans [1] = experiment: Antifungal activity against Candida albicans at 100 ug/ml by disc diffusion method; settings: read-out: IZ
HL-60(TB) = experiment: Growth inhibition of human HL-60(TB) cells at 10^-5 M incubated for 48 hrs by sulforhodamine B assay relative to control
UACC-257 = experiment: Growth inhibition of human UACC257 cells at 10^-5 M incubated for 48 hrs by sulforhodamine B assay relative to control
SK-MEL-5 = experiment: Growth inhibition of human SK-MEL-5 cells at 10^-5 M incubated for 48 hrs by sulforhodamine B assay relative to control
NCI-H522 = experiment: Growth inhibition of human NCI-H522 cells at 10^-5 M incubated for 48 hrs by sulforhodamine B assay relative to control
RXF 393 = experiment: Growth inhibition of human RXF393 cells at 10^-5 M incubated for 48 hrs by sulforhodamine B assay relative to control
UACC-62 = experiment: Growth inhibition of human UACC62 cells at 10^-5 M incubated for 48 hrs by sulforhodamine B assay relative to control
M14 = experiment: Growth inhibition of human M14 cells at 10^-5 M incubated for 48 hrs by sulforhodamine B assay relative to control
SW-620 = experiment: Growth inhibition of human SW620 cells at 10^-5 M incubated for 48 hrs by sulforhodamine B assay relative to control
OVCAR-8 = experiment: Growth inhibition of human OVCAR8 cells at 10^-5 M incubated for 48 hrs by sulforhodamine B assay relative to control
Candida albicans [2] = experiment: Antifungal activity against Candida albicans after 24 hrs by serial dilution method
BT-549 = experiment: Growth inhibition of human BT549 cells at 10^-5 M incubated for 48 hrs by sulforhodamine B assay relative to control
HCT-116 = experiment: Growth inhibition of human HCT116 cells at 10^-5 M incubated for 48 hrs by sulforhodamine B assay relative to control
U-251 = experiment: Growth inhibition of human U251 cells at 10^-5 M incubated for 48 hrs by sulforhodamine B assay relative to control
EKVX = experiment: Growth inhibition of human EKVX cells at 10^-5 M incubated for 48 hrs by sulforhodamine B assay relative to control
SF-268 = experiment: Growth inhibition of human SF268 cells at 10^-5 M incubated for 48 hrs by sulforhodamine B assay relative to control
NCI-H23 = experiment: Growth inhibition of human NCI-H23 cells at 10^-5 M incubated for 48 hrs by sulforhodamine B assay relative to control
CAKI-1 = experiment: Growth inhibition of human Caki1 cells at 10^-5 M incubated for 48 hrs by sulforhodamine B assay relative to control
SNB-75 = experiment: Growth inhibition of human SNB75 cells at 10^-5 M incubated for 48 hrs by sulforhodamine B assay relative to control
NCI-H226 = experiment: Growth inhibition of human NCI-H226 cells at 10^-5 M incubated for 48 hrs by sulforhodamine B assay relative to control
COLO 205 = experiment: Growth inhibition of human COLO205 cells at 10^-5 M incubated for 48 hrs by sulforhodamine B assay relative to control
IGROV-1 = experiment: Growth inhibition of human IGROV1 cells at 10^-5 M incubated for 48 hrs by sulforhodamine B assay relative to control
UO-31 = experiment: Growth inhibition of human UO31 cells at 10^-5 M incubated for 48 hrs by sulforhodamine B assay relative to control
SF-539 = experiment: Growth inhibition of human SF539 cells at 10^-5 M incubated for 48 hrs by sulforhodamine B assay relative to control
SNB-19 = experiment: Growth inhibition of human SNB19 cells at 10^-5 M incubated for 48 hrs by sulforhodamine B assay relative to control

Cc1ccc2nc(Cl)c(Cn3nnnc3CSc3ccccc3)cc2c1
25 mg/L: MIC (Aspergillus fumigatus)
active: growth inhibition (GI) (NCI-H460) | growth inhibition (GI) (MDA-MB-435) | growth inhibition (GI) (Malme-3M) | growth inhibition (GI) (SK-OV-3) | growth inhibition (GI) (A549) | growth inhibition (GI) (T47D) | growth inhibition (GI) (KM12) | growth inhibition (GI) (HCC 2998) | growth inhibition (GI) (LOX IMVI) | growth inhibition (GI) (SN12C) | growth inhibition (GI) (MOLT-4) | growth inhibition (GI) (SR) | growth inhibition (GI) (SF-295) | growth inhibition (GI) (ACHN) | growth inhibition (GI) (HCT-15) | growth inhibition (GI) (SK-MEL-2) | growth inhibition (GI) (MDA-MB-231) | growth inhibition (GI) (TK-10) | growth inhibition (GI) (HL-60(TB)) | growth inhibition (GI) (UACC-257) | growth inhibition (GI) (SK-MEL-5) | growth inhibition (GI) (NCI-H522) | growth inhibition (GI) (RXF 393) | growth inhibition (GI) (UACC-62) | growth inhibition (GI) (M14) | growth inhibition (GI) (SW-620) | growth inhibition (GI) (OVCAR-8) | growth inhibition (GI) (BT-549) | growth inhibition (GI) (HCT-116) | growth inhibition (GI) (U-251) | growth inhibition (GI) (EKVX) | growth inhibition (GI) (SF-268) | growth inhibition (GI) (NCI-H23) | growth inhibition (GI) (CAKI-1) | growth inhibition (GI) (SNB-75) | growth inhibition (GI) (NCI-H226) | growth inhibition (GI) (COLO 205) | growth inhibition (GI) (IGROV-1) | growth inhibition (GI) (UO-31) | growth inhibition (GI) (SF-539) | growth inhibition (GI) (SNB-19)
10 mg/L: MIC (Candida albicans [2])
12 mm: zone of inhibition at 100 µg/mL (Candida albicans [1])

Clc1nc2ccccc2cc1Cn1nnc(CSc2ccccc2)n1
10 mm: zone of inhibition at 100 µg/mL (Candida albicans [1])
active: growth inhibition (GI) (NCI-H460) | growth inhibition (GI) (MDA-MB-435) | growth inhibition (GI) (Malme-3M) | growth inhibition (GI) (SK-OV-3) | growth inhibition (GI) (A549) | growth inhibition (GI) (T47D) | growth inhibition (GI) (KM12) | growth inhibition (GI) (HCC 2998) | growth inhibition (GI) (LOX IMVI) | growth inhibition (GI) (SN12C) | growth inhibition (GI) (MOLT-4) | growth inhibition (GI) (SR) | growth inhibition (GI) (SF-295) | growth inhibition (GI) (ACHN) | growth inhibition (GI) (HCT-15) | growth inhibition (GI) (SK-MEL-2) | growth inhibition (GI) (MDA-MB-231) | growth inhibition (GI) (TK-10) | growth inhibition (GI) (HL-60(TB)) | growth inhibition (GI) (UACC-257) | growth inhibition (GI) (SK-MEL-5) | growth inhibition (GI) (NCI-H522) | growth inhibition (GI) (RXF 393) | growth inhibition (GI) (UACC-62) | growth inhibition (GI) (M14) | growth inhibition (GI) (SW-620) | growth inhibition (GI) (OVCAR-8) | growth inhibition (GI) (BT-549) | growth inhibition (GI) (HCT-116) | growth inhibition (GI) (U-251) | growth inhibition (GI) (EKVX) | growth inhibition (GI) (SF-268) | growth inhibition (GI) (NCI-H23) | growth inhibition (GI) (CAKI-1) | growth inhibition (GI) (SNB-75) | growth inhibition (GI) (NCI-H226) | growth inhibition (GI) (COLO 205) | growth inhibition (GI) (IGROV-1) | growth inhibition (GI) (UO-31) | growth inhibition (GI) (SF-539) | growth inhibition (GI) (SNB-19)
10 mg/L: MIC (Candida albicans [2])
25 mg/L: MIC (Aspergillus fumigatus)
